Tests used:
Tetranychus cinnabarinus = test: Activity against Tetranychus cinnabarinus; format: in vivo; set-up: key: -: substantially no damage; +: little damage; ++: heavy damage; conditions: 500 ppm, 15 ml spray plus 2 ml soil injection, kidney bean, after eight days
Description: Biological Test 8 Activity Against Tetranychus cinnabarinus
Ten male mites (Tetranychus cinnabarinus) per leaf were placed on a pot-planted kidney bean (Phasseolus vulgaris: seven days after sowing) and kept in a thermostatic chamber. After six days, 15 ml of a 500 ppm aqueous solution obtained by diluting each emulsifiable concentrate of each of the present compounds according to the formulation example 1 was sprayed in a pot simultaneously with injection of 2 ml of the solution into soil. After eight days, damage to the plant by Tetranychus cinnabarinus was evaluated according to the following criteria:
-: substantially no damage

[1] = Acute toxicity in oral application to mice; conditions: mouse, in vivo, 30 mg/kg, ICR male mice, after seven days
Description: Biological Test 9 Acute Toxicity in Oral Application to Mice
Each of the present compound was diluted with corn oil to a predetermined concentration. After subjecting the mice to a twenty-hour fasting, 0.1 ml of the diluted solution per 10 g weight was forcibly applied into the stomach of each ICR male 6-week old mouse (weight: 24 to 31 g). The mice were given food and water four hours after the application and thereafter regularly fed and watered, and kept in a cage. After seven days, the mortality was examined for the mice (4 mice/group).

[2] = tested on: larvae of Spodoptera litura; test: Insecticidal activity against larvae of Spodoptera litura; format: in vivo; conditions: 144 h, 4-instar larvae, artificial bait, after six days
Description: Biological Test 1 Insecticidal Activity Against Larvae of Spodoptera litura
Emulsifiable concentrates were prepared for each of the present compounds according to the formulation example 1. Thirteen grams of artificial bait for Spodoptera litura were placed in a polyethylene cup (diameter: 11 cm) and impregnated with 2 ml of the emulsifiable concentrate diluted with water (500 ppm). Ten 4-instar larvae of Spodoptera litura were put in the polyethylene cup. After six days, the mortality of the larvae was examined.

[3] = tested on: larvae of Culex pipiens pallens; test: Insecticidal activity against larvae of Culex pipiens pallens; format: in vivo; conditions: 3.5 ppm active ingredient in water, twenty last-instar larvae, after one day
Description: Biological Test 7 Insecticidal Activity Against Larvae of Culex pipiens pallens
Each of emulsifiable concentrates prepared from each of the present compounds according to the formulation example 1 was diluted with water, and 0.7 ml of the diluted solution was added to 100 ml of ion-exchanged water (concentration of active ingredient: 3.5 ppm). Twenty last-instar larvae of Culex pipiens pallens were left in the water. After one day, the activity was evaluated according to the following criteria:
A: Mortality not less than 90%
B: Mortality not less than 10% but less than 90%
C: Mortality less than 10%

Musca domestica = test: Insecticidal activity against Musca domestica; format: in vivo; conditions: 24 h, 0.7 ml of 500 ppm on filter paper, ten female house flies, after one day
Description: Biological Test 4 Insecticidal Activity Against Musca domestica
(§1) Filter paper of 5.5 cm in diameter was laid in the bottom of a polyethylene cup (diameter: 5.5 cm). After 0.7 ml of a 500 ppm aqueous solution obtained by diluting each emulsifiable concentrate prepared from each of the present compounds according to the formulation example 1 was dropped on the filter paper and approximately 30 mg of sucrose was uniformly scattered, and put on the filter paper as bait, ten female house flies (Musca domestica) were left in the cup with a cover. After one day, the mortality was examined for the flies.

[4] = tested on: larvae of Diabrotica undecimpunctata; test: Insecticidal activity against larvae of Diabrotica undecimpunctata; format: in vivo; conditions: 1 ml of 50 ppm on filter paper, approximately thirty eggs, after eight days
Description: Biological Text 5 Insecticidal Activity Against Larvae of Diabrotica undecimpunctata
Filter paper of 5.5 cm in diameter was laid in the bottom of a polyethylene cup (diameter: 5.5 cm). After 1 ml of a 50 ppm aqueous solution obtained by diluting each of the emulsifiable concentrate prepared from each of the present compounds according to the formulation example 1 was dropped on the filter paper and one sprouting corn crop was placed as bait on the paper, approximately thirty eggs of Diabrotica undecimpunctata were left on the filter paper. After eight days, the rate of hatched larvae was examined. The activity were evaluated according to the following criteria:
B: Mortality not less than 90% but less than 100%
C: Mortality less than 90%

root-knot nematodes = test: Activity against root-knot nematodes; format: in vivo; set-up: key: -: substantially no root knots; +: several to ten odds root knots; ++: larger number of root knots (heavier damage than +); conditions: 25 ppm active ingredient in soil, tomato root, after four weeks
Description: Biological Test 6 Activity Against Root-knot Nematodes
One ml of a 500 ppm aqueous solution of each of the present compounds obtained by diluting each emulsifiable concentrate prepared from each of the present compounds according to the formulation example 1 was mixed with 19 g of soil contaminated with root-knot nematodes (concentration of active ingredient in soil: 25 ppm). After the soil was kept at 27° C. for 24 hours, the root of a tomato plant (approximately two weeks after sprouting) in a cup was covered with the soil and some water was given to the plant. After four weeks, damage to the root of the tomato plant was evaluated according to the following criteria:
-: substantially no root knots
+: several to ten odds root knots
++: larger number of root knots (heavier damage than +)

Blattella germanica = test: Insecticidal activity against Blattella germanica; format: in vivo; conditions: 24 h, 0.7 ml of 500 ppm on filter paper, ten male cockroaches, after one day
Description: Biological Test 3 Insecticidal Avtivity Against Blattella germanica
as §1, with “scattered” for “scattered,”, “male cockroaches (Blattella germanica)” for “female house flies (Musca domestica)”, “cockroaches.” for “flies.”

Row | Compound | Activity (Tetranychus cinnabarinus) | mortality at 168 h [1] [%] | mortality at 500 ppm [2] [%] | Activity [3] | mortality at 500 ppm (Musca domestica) [%] | Activity [4] | Activity (root-knot nematodes) | mortality at 500 ppm (Blattella germanica) [%]
1 | CCOP(=O)(SC(C)CC)N(CCC#N)C(=O)SC (stereo not shown) [Compound 13] | - | 0 | 100 | A (Mortality not less than 90%) | 100 | A (Mortality 100%) | - | 100
2 | CCOP(=O)(SC(C)CC)N(CC#N)C(=O)OC (stereo not shown) [Compound 9, O-ethyl S-sec-butyl N-cyanomethyl N-methoxycarbonyl phosphoroamidothiolate] | - | 0 | 100 | A (Mortality not less than 90%) | 100 | A (Mortality 100%) | - | 100

— patent publication US5449667A, “Amidothiophosphate derivative and insecticide, nematocide and acaricide containing the same as active ingredient” (priority 1993, dated 1995)
